From patent US20250152559A1, “METHODS FOR TREATING MYC-AMPLIFIED CANCER” (The Governing Council of the University of Toronto, priority 2023, published 2025)
Where “and” joins values, the source holds several entries; their conditions need not be identical. Equal values may be shown once.

What was measured:
[1] = tested on: SU_MB002 cells genomic DNA; assay: Differential methylation analysis (Illumina EPIC array); format: cell-based, human
Procedure: Illumina Human Infinium MethylationEPIC (EPIC) BeadChip (Illumina, CA, USA) array was performed at The Centre for Applied Genomics, The Hospital for Sick Children (Toronto) using the manufacturer's standard protocol.
Raw IDAT files (annotation: ilm10b4.hg19) were processed using R (Version 4.1.2) and quality control and normalization was performed using minfi^76. Intensity and density plots were generated, and no samples were removed from the analysis as the mean detection p-values for all probed genomic positions were <0.01 for each sample. Probes with mean detection p-values >0.01 across all samples were excluded. Probes mapping sex chromosomes, single nucleotide polymorphisms (SNPs), and cross-hybridisation probes were removed. Quantile normalization was performed, and density plots were generated before and after normalization. Differential analysis was completed with beta values of 768467 CpGs for 8 samples comparing BAY to DMSO at 48 h and 72 h using limma^77. P-values were adjusted for False Discovery Rate (FDR) using Benjamini and Hochberg method, and a 10% FDR and log FC of >|0.1| cut-off was used.
Differentially methylated positions (DMPs) were annotated using the USCS (UCSC_RefGene_Name, UCSC_RefGene_Group and Relation_to_Island) from the Infinium MethylationEPIC Manifest. The analysis was performed focusing on DMPs within promoter islands (considering TSS1500, TSS200, 5′UTR and 1st exon as promotor regions). Enrichment analysis of unique genes (using UCSC RefGene Name) identified within DMPs at promoter islands was performed using Enrichr (ENCODE TF ChIP-seq 2015)^43.

[2] = tested on: de novo pyrimidine biosynthesis in flank tumor tissue; assay: LC-MS metabolome profiling of flank xenograft tissues of treated mice; format: in vivo; conditions: individual samples, listed as BAY
Procedure: In parallel to these experiments, subcutaneous flank xenografts were engrafted into two cohorts of mice, which were treated with the vehicle or R2. […] To investigate the pharmacokinetics of BAY in vivo, its concentration in plasma and brain tissues of healthy mice was directly quantified using an LC-MS approach. BAY was detected in both brains and plasma of mice undergoing treatment, however the plasma concentrations exceeded those of the brain by approximately 10-fold (FIG. 5H-I). To determine whether treatment with BAY affects de novo pyrimidine biosynthesis in vivo, changes in pyrimidine metabolism were measured in the brain in comparison to tumor tissues from the flank (FIG. 5J-K). Although BAY treatment impacted de novo pyrimidine metabolism in vivo in both brain and tumor tissues, with a similar pattern observed in vitro (FIG. 4A), the effect size was stronger in peripheral tumor tissue in comparison to brain tissue. Such findings further reflect the limited capacity for BAY to accumulate within the brain.
For metabolome profiling of tissues, ˜5 mg tissue were homogenized in 225 μL of −20° C. cold, methanol using a Bullet Blender Tissue Homogenizer (NextAdvance, Inc.) Bullet for 3 min. The homogenate was vortexed for 20 s and 750 μL of −20° C. cold methyl tertiary-butyl ether (MTBE) was added, and the mixture was vortexed for 10 s and shaken at 4° C. for 5 min. Next, 188 μL room temperature water was added and vortexed for 20 s to induce phase separation. After centrifugation for 5 min at 14,000×g, the bottom polar phase was collected and dried down. Metabolite extracts were reconstituted in LC-MS grade water/acetonitrile (50:50; v:v), vortexed for 1 min, sonicated for 15 min, and centrifuged at 16,000×g and 4° C. for 15 min to remove insoluble debris.
The LC-MS metabolomics and lipidomics analyses of the 3 NSC and 3 MB cell lines and tissues were performed on a UPLC-MS system consisting of an Orbitrap IQ-X Tribrid coupled to a Horizon Vanquish UPLC system (Thermo Fisher Scientific). The lipidomics analysis was conducted in positive-ion mode with a spray voltage of 3.5 kV while the metabolomics analysis was conducted in negative-ion mode with a spray voltage of −2.5 kV. The following source conditions were identical in both analyses and were set as follows: Sheath gas flow rate, 50 arbitrary units; Aux. gas flow rate, 10 arbitrary units; Sweep gas flow rate, 1 arbitrary unit; Ion transfer tube temp., 300° C.; Vaporizer temp., 350° C. The following acquisition parameters were used for MS1 analysis in both methods: resolution, 120,000, AGC target, 4e5. The maximum IT was set at […] for the lipidomics analysis and 200 ms for the metabolomics analysis. Data-dependent MS/MS parameters for the lipidomics analyses: resolution, 30,000; AGC target, 7.5e4; maximum IT, Dynamic (54 ms); time between Master Scans, 0.6 s; isolation window, 1.0 m/z; NCE/stepped nce, 20, 30, 40; intensity threshold, 5e4; exclude isotopes, on; dynamic exclusion, 3.0 s. Data-dependent MS/MS parameters for the metabolomics analyses: resolution. 15,000; AGC target, 7.5e4; maximum IT, Dynamic (22 ms); time between Master Scans, 0.6 s; isolation window, 1.0 m/z; NCE/stepped nce, 20, 30, 40, 50; intensity threshold, 5e4; exclude isotopes, on; dynamic exclusion, 5.0 s. To increase the total number of MS/MS spectra in the lipidomics analysis, five runs with iterative MS/MS exclusions were performed using the AcquireX function in Xcalibur (Thermo Fisher Scientific). In the metabolomics analysis, three runs with iterative MS/MS exclusions were performed using the AcquireX function. For the lipidomics analysis, chromatographic separation was achieved using a Waters Acquity UPLC CSH C18 (100 mm×2.1 mm i.d.; 1.7 μm) column injecting 2 μL. […] The column was equilibrated for 2 min at 15% B. The flow rate was set to 250 μL/min. The column temperature was maintained at 65° C. […]

[3] = flank tumor tissue of BAY-treated mice

CCn1c(CO)nn(-c2cc(O[C@@H](C)C(F)(F)F)c(C(=O)Nc3c(F)cccc3Cl)cc2F)c1=O [BAY2402234]
DMPs in promoter islands ([1]; 48 h): 2/18 | differentially methylated positions (DMPs), BAY vs vehicle ([1]; 48 h of treatment): 18 | DMPs in promoter islands ([1]; 72 h): 123/751 | differentially methylated positions (DMPs), BAY vs vehicle ([1]; 72 h of treatment): 751 | Glutamine normalized peak intensity (Area) [2, 3]: 55492788 and 50587148 and 68843176 and 56207472 | N-Carbamoyl aspartic acid normalized peak intensity (Area) [2, 3]: 385157056 and 380028608 and 450759360 and 384681824 | Orotic acid normalized peak intensity (Area) [2, 3]: 33617724 and 35906864 and 46970420 and 34348420 | UDP-GluNAc normalized peak intensity (Area) [2, 3]: 2589539 and 2049874 and 3781049 and 10999488 | UTP normalized peak intensity (Area) [2, 3]: 4036 and 1148 and 5307 and 1474 | Uridine 5′-diphosphate (UDP) normalized peak intensity (Area) [2, 3]: 5654 and 1891 and 15124 and 5023 | Uridine 5′-monophosphate normalized peak intensity (Area) [2, 3]: 17895140 and 14218088 and 25187528 and 9202930 | Uridine normalized peak intensity (Area) [2, 3]: 1736921 and 2207031 and 3920911 and 1886173 | dihydroorotic acid normalized peak intensity (Area) [2, 3]: 119216720 and 62149264 and 89191448 and 46399468 | BAY-2402234 normalized peak intensity (Area) [2]: 249608 and 266857 and 361684 and 146195
